Laboratory results taken from ChEMBL document CHEMBL1152477, “Evaluation of substrate and inhibitor properties of a novel MDR modulator H17 towards transmembrane efflux pumps” (Eur J Med Chem, 2009).

How the values were obtained:
Rattus norvegicus [1] = species: Rattus norvegicus; assay: Inhibition of P-glycoprotein in White Wistar rat jejunum assessed as permeability at 30 uM after 30 mins by HPLC analysis; format: tissue-based
Rattus norvegicus [2] = species: Rattus norvegicus; assay: Inhibition of P-glycoprotein in White Wistar rat ileum assessed as permeability at 30 uM after 30 mins by HPLC analysis; format: tissue-based
Rattus norvegicus [3] = species: Rattus norvegicus; assay: Inhibition of P-glycoprotein in White Wistar rat colon assessed as permeability at 30 uM after 30 mins by HPLC analysis
[4] = target: T1, Multidrug resistance-associated protein 1 (Rattus norvegicus, UniProt Q8CG09); assay: Inhibition of MRP1/MRP2 in White Wistar rat jejunum assessed as increase in drug uptake at 1 mM after 30 mins by HPLC analysis; format: tissue-based; conditions: 0.5 h, 1000 µM
T1 sequence (Q8CG09 whole entry): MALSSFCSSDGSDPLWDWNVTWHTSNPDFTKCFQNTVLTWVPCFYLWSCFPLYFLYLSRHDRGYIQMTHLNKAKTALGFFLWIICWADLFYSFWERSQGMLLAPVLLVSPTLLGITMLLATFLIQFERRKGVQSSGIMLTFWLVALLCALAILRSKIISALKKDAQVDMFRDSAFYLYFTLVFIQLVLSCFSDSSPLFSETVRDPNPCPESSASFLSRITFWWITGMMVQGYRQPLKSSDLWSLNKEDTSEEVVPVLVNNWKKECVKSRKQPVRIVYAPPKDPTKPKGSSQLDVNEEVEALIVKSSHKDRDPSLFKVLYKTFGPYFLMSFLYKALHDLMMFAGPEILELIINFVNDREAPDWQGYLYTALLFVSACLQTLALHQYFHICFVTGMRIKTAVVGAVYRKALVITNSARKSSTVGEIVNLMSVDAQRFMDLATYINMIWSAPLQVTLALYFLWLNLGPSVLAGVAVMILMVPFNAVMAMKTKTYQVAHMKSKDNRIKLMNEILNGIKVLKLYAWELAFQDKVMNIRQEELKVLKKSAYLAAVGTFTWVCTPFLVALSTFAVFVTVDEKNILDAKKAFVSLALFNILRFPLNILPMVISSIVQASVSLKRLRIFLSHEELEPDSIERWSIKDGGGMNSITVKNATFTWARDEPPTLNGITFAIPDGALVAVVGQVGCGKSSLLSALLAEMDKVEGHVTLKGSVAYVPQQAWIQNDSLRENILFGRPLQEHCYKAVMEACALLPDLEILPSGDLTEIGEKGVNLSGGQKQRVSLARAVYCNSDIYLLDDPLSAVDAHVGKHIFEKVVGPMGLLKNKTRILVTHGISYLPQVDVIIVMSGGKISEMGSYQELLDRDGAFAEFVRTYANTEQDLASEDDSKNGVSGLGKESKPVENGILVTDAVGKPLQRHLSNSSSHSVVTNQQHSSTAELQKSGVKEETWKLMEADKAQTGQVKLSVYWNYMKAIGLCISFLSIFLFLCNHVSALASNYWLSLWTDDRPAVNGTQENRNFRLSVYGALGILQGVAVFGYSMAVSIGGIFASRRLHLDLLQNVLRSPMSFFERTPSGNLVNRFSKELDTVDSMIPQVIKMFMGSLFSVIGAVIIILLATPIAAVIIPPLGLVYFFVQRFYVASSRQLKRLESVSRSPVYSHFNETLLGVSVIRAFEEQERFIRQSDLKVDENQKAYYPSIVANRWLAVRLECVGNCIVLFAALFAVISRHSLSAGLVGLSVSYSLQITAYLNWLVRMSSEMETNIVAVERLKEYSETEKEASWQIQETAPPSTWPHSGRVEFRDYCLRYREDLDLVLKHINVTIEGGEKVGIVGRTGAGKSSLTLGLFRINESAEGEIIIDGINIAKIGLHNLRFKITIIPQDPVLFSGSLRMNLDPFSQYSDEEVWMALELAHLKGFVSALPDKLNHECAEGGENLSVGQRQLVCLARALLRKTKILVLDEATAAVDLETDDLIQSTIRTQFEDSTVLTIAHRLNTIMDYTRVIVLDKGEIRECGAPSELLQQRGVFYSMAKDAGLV

[5] = target: T1, Multidrug resistance-associated protein 1; assay: Inhibition of MRP1/MRP2 in White Wistar rat ileum assessed as increase in drug uptake at 1 mM after 30 mins by HPLC analysis; format: tissue-based; conditions: 0.5 h, 1000 µM
[6] = target: T1, Multidrug resistance-associated protein 1; assay: Inhibition of MRP1/MRP2 in White Wistar rat colon assessed as increase in drug uptake at 1 mM after 30 mins by HPLC analysis; conditions: 0.5 h, 1000 µM

| Structure (SMILES) | permeability (Rattus norvegicus [1]) [×10⁻⁴ cm/s] | permeability (Rattus norvegicus [2]) [×10⁻⁴ cm/s] | permeability (Rattus norvegicus [3]) [×10⁻⁴ cm/s] | Drug uptake [4] [%] | Drug uptake [5] [%] | Drug uptake [6] [%] |
| --- | --- | --- | --- | --- | --- | --- |
| OCC12C3C4C1N(Cc1ccccc1)C1(CO)C(CO)(C4c4ccccc4)C(N3Cc3ccccc3)C1(CO)C2c1ccccc1 (stereo unspecified) | 2.36 | 2.4 | 2.05 |  |  |  |
| COc1ccc2c(c1)c(CC(=O)O)c(C)n2C(=O)c1ccc(Cl)cc1 [INDOMETHACIN] |  |  |  | 24 | 13 | 13 |
